Results reported in paper PMC7506137, “Selective Phosphodiesterase 1 Inhibitor BTTQ Reduces Blood Pressure in Spontaneously Hypertensive and Dahl Salt Sensitive Rats: Role of Peripheral Vasodilation” (Frontiers in Physiology, 2020).
“And” between values parts separate entries of the source, which are not always exact repeats. Equal entries are not always repeated. Where two headings read alike, the source gives them in different places.

Assay: Plasma exposure (dried blood spot) after single oral dose
Format: in vivo
Conditions: rat; for concentration at 5 h / concentration at 6 h / concentration at 24 h: Sprague Dawley, po, 3 mg/kg, oral 3 mg/kg; for concentration at 24 h / Unbound Concentration, individual animals / Concentration, individual animals: 24 h
Procedure: Male Sprague Dawley rats at 6 to 7 weeks were dosed orally by p.o. gavage with different doses of BTTQ formulated in 1% hydroxyethlycellulose (Dow Corning, Midland, MI, United States) (w/v), 0.25% polysorbate 80 (Sigma-Aldrich, St. Louis, MO, United States) (v/v), and 0.05% antifoam (v/v; Dow Corning, Midland, MI, United States) in purified water. Following dosing, ear temperature was measured by using a k-type thermocouple probe digital thermometer (Cole Parmer) every hour for 6 h and then at 24 h. Blood samples for plasma exposure measurement were obtained at the same time. Blood was collected via a tail snip directly into a 20-μL EDTA-coated capillary and immediately spotted onto a Whatman DMPK-C DBS card (GE Healthcare Bio-Sciences). Tail snips were performed by removing approximately 1 mm of the tail by using a scalpel. Blood flow was initiated by gentle squeezing of the tail. No analgesia or anesthesia was used during blood collections. A single sample and spot were collected per time point. The DBS cards were allowed to dry for approximately 2 h at room temperature, after which the cards were placed in a zip-top bag, stored, and shipped at ambient temperature.

concentration at 5 h (male, whole blood (dried blood spot), 5 h, dried blood spot, read-out: Concentration, Mean): 2170 nM
concentration at 5 h (male, whole blood (dried blood spot), 5 h, dried blood spot, read-out: Concentration, individual animals): 2680 nM
concentration at 6 h (male, whole blood (dried blood spot), 6 h, FU 0.053, read-out: Unbound Concentration, Mean): 93.5 nM
concentration at 6 h (male, whole blood (dried blood spot), 6 h, FU 0.053, read-out: Unbound Concentration, individual animals): 98.1 nM
concentration at 6 h (male, whole blood (dried blood spot), 6 h, dried blood spot, read-out: Concentration, Mean): 1760 nM
concentration at 6 h (male, whole blood (dried blood spot), 6 h, dried blood spot, read-out: Concentration, individual animals): 1850 nM
concentration at 24 h (male, whole blood (dried blood spot), FU 0.053, read-out: Unbound Concentration, Mean): 5 nM
concentration at 24 h (male, whole blood (dried blood spot), dried blood spot, read-out: Concentration, Mean): 94.2 nM
half-life (male, whole blood (dried blood spot), after oral administration, Sprague Dawley rats): ~4 h
concentration at 4 h (oral 0.03 mg/kg, 5 h, FU 0.053, 0.03 mg/kg, read-out: Unbound Concentration, individual animals): 1.35 nM and 1.39 nM (2×) and 1.51 nM
Unbound Concentration, individual animals (oral 0.03 mg/kg, FU 0.053): BQL
Concentration, individual animals (oral 0.03 mg/kg, dried blood spot): BQL
concentration at 4 h (oral 0.1 mg/kg, 1 h, dried blood spot, 0.1 mg/kg, read-out: Concentration, individual animals): 229 nM and 172 nM and 180 nM and 175 nM
concentration at 4 h (oral 0.1 mg/kg, 2 h, dried blood spot, 0.1 mg/kg, read-out: Concentration, individual animals): 193 nM and 190 nM and 168 nM and 174 nM
concentration at 4 h (oral 0.1 mg/kg, 3 h, dried blood spot, 0.1 mg/kg, read-out: Concentration, individual animals): 169 nM and 187 nM and 144 nM and 179 nM
concentration at 4 h (oral 0.1 mg/kg, 4 h, dried blood spot, 0.1 mg/kg, read-out: Concentration, individual animals): 133 nM and 136 nM and 88.1 nM and 146 nM
Unbound Concentration, individual animals (oral 0.1 mg/kg, FU 0.053, 0.1 mg/kg): BQL
Concentration, individual animals (oral 0.1 mg/kg, dried blood spot, 0.1 mg/kg): BQL
concentration at 4 h (oral 0.3 mg/kg, 1 h, dried blood spot, 0.3 mg/kg, read-out: Concentration, individual animals): 362 nM and 593 nM and 638 nM and 566 nM
concentration at 4 h (oral 0.3 mg/kg, 2 h, FU 0.053, 0.3 mg/kg, read-out: Unbound Concentration, individual animals): 25.4 nM and 27.8 nM and 21 nM and 25 nM
concentration at 4 h (oral 0.3 mg/kg, 2 h, dried blood spot, 0.3 mg/kg, read-out: Concentration, individual animals): 479 nM and 525 nM and 397 nM and 472 nM
concentration at 4 h (oral 0.3 mg/kg, 3 h, dried blood spot, 0.3 mg/kg, read-out: Concentration, individual animals): 280 nM and 328 nM and 323 nM and 363 nM
concentration at 4 h (oral 0.3 mg/kg, 4 h, FU 0.053, 0.3 mg/kg, read-out: Unbound Concentration, individual animals): 12.1 nM (2×) and 11.3 nM and 11.1 nM
concentration at 4 h (oral 0.3 mg/kg, 4 h, dried blood spot, 0.3 mg/kg, read-out: Concentration, individual animals): 229 nM (2×) and 213 nM and 210 nM
concentration at 4 h (oral 0.3 mg/kg, 5 h, FU 0.053, 0.3 mg/kg, read-out: Unbound Concentration, individual animals): 8 nM
Unbound Concentration, individual animals (oral 0.3 mg/kg, FU 0.053): BQL
Concentration, individual animals (oral 0.3 mg/kg, dried blood spot): BQL
SMILES: O=c1c2nnc(C3(C4CC4)CC3)n2c2c(n1CC1CC1)CCCC2 [BTTQ, 1-[1,1′-bi(cyclopropyl)-1-yl]-5-(cyclopropylmethyl)-6,7,8,9-tetrahydro[1,2,4]triazolo[4,3-A]quinoxaline-4(5H)-one]
concentration at 4 h (oral 0.03 mg/kg, 5 h, dried blood spot, 0.03 mg/kg, read-out: Concentration, individual animals): 25.4 nM and 26.3 nM and 28.4 nM and 26.2 nM
concentration at 4 h (oral 0.03 mg/kg, 6 h, FU 0.053, 0.03 mg/kg, read-out: Unbound Concentration, individual animals): 1.93 nM and 0.917 nM and 0.906 nM and 0.938 nM and 1.13 nM
concentration at 4 h (oral 0.03 mg/kg, 6 h, dried blood spot, 0.03 mg/kg, read-out: Concentration, individual animals): 36.4 nM and 17.3 nM and 17.1 nM and 17.7 nM and 21.4 nM
concentration at 4 h (oral 0.1 mg/kg, 1 h, FU 0.053, 0.1 mg/kg, read-out: Unbound Concentration, individual animals): 12.1 nM and 9.12 nM and 9.54 nM and 9.28 nM
concentration at 4 h (oral 0.1 mg/kg, 2 h, FU 0.053, 0.1 mg/kg, read-out: Unbound Concentration, individual animals): 10.2 nM and 10.1 nM and 8.9 nM and 9.22 nM
concentration at 4 h (oral 0.1 mg/kg, 3 h, FU 0.053, 0.1 mg/kg, read-out: Unbound Concentration, individual animals): 8.96 nM and 9.91 nM and 7.63 nM and 9.49 nM
concentration at 4 h (oral 0.1 mg/kg, 4 h, FU 0.053, 0.1 mg/kg, read-out: Unbound Concentration, individual animals): 7.05 nM and 7.21 nM and 4.67 nM and 7.74 nM
concentration at 4 h (oral 0.1 mg/kg, 5 h, FU 0.053, 0.1 mg/kg, read-out: Unbound Concentration, individual animals): 5.35 nM and 4.7 nM and 3.91 nM and 5.72 nM
concentration at 4 h (oral 0.1 mg/kg, 5 h, dried blood spot, 0.1 mg/kg, read-out: Concentration, individual animals): 101 nM and 88.7 nM and 73.7 nM and 108 nM
concentration at 4 h (oral 0.1 mg/kg, 6 h, FU 0.053, 0.1 mg/kg, read-out: Unbound Concentration, individual animals): 5.83 nM and 4.21 nM and 3.48 nM and 4.92 nM
concentration at 4 h (oral 0.1 mg/kg, 6 h, dried blood spot, 0.1 mg/kg, read-out: Concentration, individual animals): 110 nM and 79.5 nM and 65.7 nM and 92.8 nM
concentration at 4 h (oral 0.3 mg/kg, 1 h, FU 0.053, 0.3 mg/kg, read-out: Unbound Concentration, individual animals): 19.2 nM and 31.4 nM and 33.8 nM and 30 nM
concentration at 4 h (oral 0.3 mg/kg, 3 h, FU 0.053, 0.3 mg/kg, read-out: Unbound Concentration, individual animals): 14.8 nM and 17.4 nM and 17.1 nM and 19.2 nM
